Measured values: patent US20240350456A1, “COMPOSITIONS AND METHODS FOR DIAGNOSING AND TREATING INFLAMMATORY CONDITIONS” (RUTGERS, THE STATE UNIVERSITY OF NEW JERSEY, priority 2023, published 2024)

How the values were obtained:
ZO-1 (Tjp1) and Ocln = experiment: Intestinal organoids treated with LPS and metabolites: tight junction (TJ) expression, RT-qPCR and immunostaining; type: cell-based, mouse; conditions: for gene expression of Ocln: ex vivo, in the presence of the barrier disruptor; for TJ expression at the protein and mRNA levels: in the presence of LPS (1 μg/mL), 48 hr
Protocol: Intestinal organoids were isolated as previously described (Das et al., 2015; Pearce et al., 2018). Briefly, crypts were isolated from small intestine of conventional house C57BL/6 male mice (Taconic Laboratories, Hudson, NY) by shaking in isolation buffer (2 mM EDTA in PBS), then, crypts were harvested, processed, and suspended in crypt culture medium (CCM), which consisted of advanced DMEM/F12 (Life Technologies, Carlsbad, CA) supplemented with serum-free B27 (1:50; Life Technologies), N2 (1:100; Life Technologies), N-acetylcysteine (1 mM; Sigma-Aldrich, St. Louis, MO), recombinant murine epithelial growth factor (EGF, 50 ng/ml; Peprotech, Rocky Hill, NJ), Noggin (100 ng/ml; Peprotech), R-Spondin (500 ng/ml; Peprotech), Glutamax-I supplement (1:100; Life Technologies), penicillin/streptomycin (500 μg/ml; Life Technologies), and HEPES ([…]; Life Technologies). Crypts were resuspended in 70% Matrigel (density ˜450 crypts per dome, 2 domes per well in 24-well plate) and allowed to solidify at 37° C. for 20 min. CCM (1.5 mL) was then added to each well. Cultures were incubated in a humidified incubator at 37° C., and CCM was changed daily. Intestinal organoid treatment with LPS and metabolites
We had 2 series of metabolite-treated organoid experiments, i.e., 1) organoid from conventional C57BL6 mice and 2) Ocln KO and littermate WT control as a gift from Prof. Jerrold Turner (Harvard University). […] Seeding is designated as day 0. On day 3 of culture, the existing media in the wells were completely removed before adding treatments. LPS (1 μg/mL) with or without metabolites, i.e., IPA (0.1 mM) (Li et al., 2021), IAM (200 μM) (Vyhlidalova et al., 2020), MNA (12 ng/ml) (Liu et al., 2015), CARN (20 mM) (Boldyrev et al., 2013) or ASA (1 μM) (Erez et al., 2011) were each added in CCM at known physiological concentrations, incubated for 48 hours, thereafter, organoid was harvested for RNA extraction, and paraformaldehyde fixation for immunostaining.
Total RNA was extracted from the intestinal organoids using a commercially available kit (RNeasy Microkit; Qiagen, MD, Cat. #74004) following manufacturer's instructions. mRNA samples were converted to cDNA using Bio-Rad's iScript Reverse Transcription Supermix for RT-qPCR (Bio-Rad Laboratories, Hercules, CA, Cat. #1708840). cDNA was then used for RT-qPCR (Mx3000P. Stratagene, La Jolla, CA) to analyze several genes using Maxima SYBR Green qPCR Master Mix (Thermo Fisher Scientific, Waltham, MA) and primers (Integrated DNA Technologies, Coralville, IA). Thermal profile for three-step cycling was 10 min at 95° C. for initial denaturation; then 40 cycles of 15 sec at 95° C. for denaturation, 30 sec at 65° C. for annealing, and 30 sec at 75° C. for extension. Primers used are as follows: β-actin (Actb), forward 5′-[…]-3′ (SEQ ID NO: 5), reverse 5′-[…]-3′ (SEQ ID NO: 6); ZO-1 (Tjp1), forward 5′-[…]-3′ (SEQ ID NO: 7), reverse 5′-[…]-3′ (SEQ ID NO: 8), Ocln, forward 5′-[…]-3′ (SEQ ID NO: 9), reverse 5′-[…]-3′ (SEQ ID NO: 10); Lyz1, forward 5′-ATGGCTACCGTGGTGTCAAG-3′ (SEQ ID NO: 11), reverse 5′-CGGTCTCCACGGTTGTAGTT-3′ (SEQ ID NO: 12); Tff3, forward 5′-TAATGCTGTTGGTGGTCCTG-3′ (SEQ ID NO: 13), reverse 5′-CAGCCACGGTTGTTACACTG-3′ (SEQ ID NO: 14). All samples were normalized to β actin expression. Gene expression levels are depicted as fold change relative to the control group.
Immunocytochemistry followed earlier work (Pearce et al., 2018). Briefly, organoids were extracted from Matrigel by using cell recovery solution (Corning, Cat. No. 354253), processed then fixed in 4% paraformaldehyde for 15 min and dehydrated with 70% ethanol and kept in 4° C. until embedded in paraffin. On the day of embedding, organoids were gently spun down to a pellet (250 g for 5 min), then the supernatant was removed, the pellet resuspended in agarose and embedded in paraffin. […]

[1] = system: human-derived Caco-2 cells; experiment: In vitro transwell screening in Caco-2 cells, barrier disrupted by Clostridium difficile toxin (TEER and FITC-dextran permeability); type: cell-based
From the text: FIG. 20A-20B. In vitro screening of metabolites effective against leaky gut. FIG. 20A, Diagram of the in vitro transwell method used to evaluate efficacy of metabolites in protecting the leaky gut in human-derived Caco-2 cells. The luminal compartment represents the food side, and the basolateral the blood side. FIG. 20B, Transepithelial electrical resistance (TEER) measurements, and FITC-dextran measurements, evaluate the leakiness of the tight junction that regulates the pore (top) and leak (bottom) pathways of the gut. Ions (red), small molecules (blue), FITC-dextran (orange).
FIG. 21A-21D. Efficacy of tryptophan and vitamin B3 metabolites in protecting the gut barrier in vitro. FIG. 21A, TEER measurements of metabolites placed on luminal side of transwells for 72 hours. After 48 hours, the barrier was disrupted by the toxin of clostrium difficile (Cdiff). FIG. 21B, Integrated results of area under the curve using data from FIG. 21A. FIG. 21C, FITC-dextran permeability analysis of metabolites applied luminally. FIG. 21D, FITC-dextran permeability analysis of metabolites applied basolaterally.
FIG. 22A-22B. Efficacy of microbiota-derived indole metabolites in protecting the gut barrier. FIG. 22A, Integrated results of TEER measurements of metabolites placed on luminal side of transwells for 72 hours. After 48 hours, the barrier was disrupted by the toxin of clostrium difficile (Cdiff) FIG. 22B, FITC-dextran permeability analysis of metabolites from FIG. 22A applied luminally.
To perform in vitro screening of the metabolites effective against leaky gut, an in vitro transwell method was used. (FIG. 20A) The efficacy of these metabolites in protecting the leaky gut was analyzed in human-derived Caco-2 cells. Transepithelial electrical resistance (TEER) measurements evaluates the leakiness of the tight junction that regulates the pore (FIG. 20B, top) and leak (FIG. 20B, bottom) pathways of the gut. The higher the TEER, the less permeable the junction is to the movement of ions and small molecules. FITC-dextran is a large polysaccharide with a fluorescent moiety, typically used as a probe to assess the leakiness of the tight junction to large molecules like dextran. The faster the movement of FITC-dextran from lumen to blood, the greater the permeability.
(FIG. 21A) There was no effect of these metabolites on TEER when applied by themselves. After 48 h, the barrier was disrupted by the toxin of a common “bad” bacteria Clostridium difficile (Cdiff). TEER plummeted with this toxin (TOX, red line) compared to control (Veh, blue line). […] (FIG. 21A)

## NC(=O)Cc1c[nH]c2ccccc12 [Indole-3-acetamide, indole-3-acetamide]
ZO-1 (Tjp1) and Ocln
  gene expression of Ocln: increased gene expression of Ocln
  TJ expression at the protein and mRNA levels: increased TJ expression
[1]; applied to the lumen, TOX
  TEER, indole metabolites (FIG. 22A): clearly protective against TOX-induced decreases in TEER

## C[n+]1cccc(C(N)=O)c1 [Methylnicotinamide, 1-methynicotinamide]
ZO-1 (Tjp1) and Ocln
  gene expression of Ocln: increased gene expression of Ocln
  TJ expression at the protein and mRNA levels: increased TJ expression
[1]; luminal, C. difficile toxin
  integrated TEER (area under the curve, FIG. 21B): protected the cells from barrier disruption by TOX
[1]; metabolites on luminal side, toxin after 48 h
  TEER after C. difficile toxin (FIG. 21A): best at preventing the toxin-induced disruption of the barrier
